# According to patent US10131652B2, “Pyrimidinyloxy benzene derivatives as herbicides” (E. I. DU PONT DE NEMOURS AND COMPANY, priority 2014, dated 2018):
# Like-named read-outs stand apart in the source and are kept apart here.
# Legend:
# Experiment in all cases: Test E pre-/postemergence plant response
# Type in all cases: in vivo
# [1] = system: windgrass (Apera spica-venti); conditions: scale 0 to 100, read-out: Plant response rating, Windgrass; for pest or weed control at 16 g/ha: 16 g ai/ha; for pest or weed control at 62 g/ha: 62 g ai/ha; for pest or weed control at 125 g/ha: 125 g ai/ha
# Method in brief: (§1)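 Visual scores on a 0–100 scale (100 = complete control) were assigned against untreated controls 7–21 days after treatment in a controlled environment. Compounds, formulated with solvent plus surfactant, were applied to pre-emergence silt-loam sowings or to 1- to 4-leaf plants (2–18 cm) in potting medium.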
# [2] = system: kochia (Kochia scoparia); conditions: Bassia scoparia, scale 0 to 100, read-out: Plant response rating, Kochia; for pest or weed control at 16 g/ha: 16 g ai/ha; for pest or weed control at 31 g/ha: 31 g ai/ha; for pest or weed control at 62 g/ha: 62 g ai/ha; for pest or weed control at 125 g/ha: 125 g ai/ha
# Method in brief: as §1
# [3] = system: wild oat (Avena fatua); conditions: scale 0 to 100, read-out: Plant response rating, Oat, Wild; for pest or weed control at 16 g/ha: 16 g ai/ha; for pest or weed control at 31 g/ha: 31 g ai/ha; for pest or weed control at 62 g/ha: 62 g ai/ha; for pest or weed control at 125 g/ha: 125 g ai/ha
# Method in brief: as §1
# [4] = system: wild radish (Raphanus raphanistrum); conditions: scale 0 to 100, read-out: Plant response rating, Radish, Wild; for pest or weed control at 16 g/ha: 16 g ai/ha; for pest or weed control at 31 g/ha: 31 g ai/ha; for pest or weed control at 62 g/ha: 62 g ai/ha; for pest or weed control at 125 g/ha: 125 g ai/ha
# Method in brief: as §1
# [5] = system: winter barley (Hordeum vulgare); conditions: post-emergence, Postemergence, scale 0 to 100, read-out: Plant response rating, Barley, Winter
# Method in brief: as §1
# [6] = system: canarygrass (Phalaris minor); conditions: scale 0 to 100, read-out: Plant response rating, Canarygrass; for pest or weed control at 16 g/ha: 16 g ai/ha; for pest or weed control at 31 g/ha: 31 g ai/ha; for pest or weed control at 62 g/ha: 62 g ai/ha; for pest or weed control at 125 g/ha: 125 g ai/ha
# Method in brief: as §1
# [7] = system: blackgrass (Alopecurus myosuroides); conditions: scale 0 to 100, read-out: Plant response rating, Blackgrass; for pest or weed control at 16 g/ha: 16 g ai/ha; for pest or weed control at 31 g/ha: 31 g ai/ha; for pest or weed control at 62 g/ha: 62 g ai/ha; for pest or weed control at 125 g/ha: 125 g ai/ha
# Method in brief: as §1
# [8] = system: pigweed (Amaranthus retroflexus); conditions: scale 0 to 100, read-out: Plant response rating, Pigweed; for pest or weed control at 16 g/ha: 16 g ai/ha; for pest or weed control at 31 g/ha: 31 g ai/ha; for pest or weed control at 62 g/ha: 62 g ai/ha; for pest or weed control at 125 g/ha: 125 g ai/ha
# Method in brief: as §1
# [9] = system: winter wheat (Triticum aestivum); conditions: post-emergence, Postemergence, scale 0 to 100, read-out: Plant response rating, Wheat, Winter
# Method in brief: as §1
# [10] = system: lambsquarters (Chenopodium album); conditions: scale 0 to 100, read-out: Plant response rating, Lambsquarters; for pest or weed control at 16 g/ha: 16 g ai/ha; for pest or weed control at 31 g/ha: 31 g ai/ha; for pest or weed control at 62 g/ha: 62 g ai/ha; for pest or weed control at 125 g/ha: 125 g ai/ha
# Method in brief: as §1
# [11] = system: bluegrass (annual bluegrass, Poa annua); conditions: scale 0 to 100, read-out: Plant response rating, Bluegrass; for pest or weed control at 16 g/ha: 16 g ai/ha; for pest or weed control at 31 g/ha: 31 g ai/ha; for pest or weed control at 62 g/ha: 62 g ai/ha; for pest or weed control at 125 g/ha: 125 g ai/ha
# Method in brief: as §1
structure (smiles),measurement,setting,value
"FC(F)c1cc(-c2ccccc2Oc2ncc(Cl)cn2)no1 [Compound 35, 5-chloro-2-[2-[5-(difluoromethyl)-3-isoxazolyl]phenoxy]pyrimidine]",pest or weed control at 16 g/ha,"[1]; post-emergence, Postemergence",10%
same,pest or weed control at 31 g/ha,"[1]; post-emergence, 31 g ai/ha, Postemergence",25%
same,pest or weed control at 62 g/ha,"[1]; post-emergence, Postemergence",30%
same,pest or weed control at 125 g/ha,"[1]; post-emergence, Postemergence",40%
same,pest or weed control at 16 g/ha,"[1]; pre-emergence, Preemergence",35%
same,pest or weed control at 62 g/ha,"[1]; pre-emergence, Preemergence",85%
same,pest or weed control at 125 g/ha,"[1]; pre-emergence, Preemergence",100%
same,pest or weed control at 16 g/ha,"[2]; post-emergence, Postemergence",75%
same,pest or weed control at 31 g/ha,"[2]; post-emergence, Postemergence",75%
same,pest or weed control at 62 g/ha,"[2]; post-emergence, Postemergence",80%
same,pest or weed control at 125 g/ha,"[2]; post-emergence, Postemergence",90%
same,pest or weed control at 16 g/ha,"[2]; pre-emergence, Preemergence",25%
same,pest or weed control at 31 g/ha,"[2]; pre-emergence, Preemergence",65%
same,pest or weed control at 62 g/ha,"[2]; pre-emergence, Preemergence",100%
same,pest or weed control at 125 g/ha,"[2]; pre-emergence, Preemergence",100%
same,pest or weed control at 16 g/ha,"[3]; post-emergence, Postemergence",10%
same,pest or weed control at 31 g/ha,"[3]; post-emergence, Postemergence",15%
same,pest or weed control at 62 g/ha,"[3]; post-emergence, Postemergence",35%
same,pest or weed control at 125 g/ha,"[3]; post-emergence, Postemergence",60%
same,pest or weed control at 16 g/ha,"[3]; pre-emergence, Preemergence",0%
same,pest or weed control at 31 g/ha,"[3]; pre-emergence, Preemergence",0%
same,pest or weed control at 62 g/ha,"[3]; pre-emergence, Preemergence",45%
same,pest or weed control at 125 g/ha,"[3]; pre-emergence, Preemergence",35%
same,pest or weed control at 16 g/ha,"[4]; post-emergence, Postemergence",65%
same,pest or weed control at 31 g/ha,"[4]; post-emergence, Postemergence",75%
same,pest or weed control at 62 g/ha,"[4]; post-emergence, Postemergence",85%
same,pest or weed control at 125 g/ha,"[4]; post-emergence, Postemergence",95%
same,pest or weed control at 16 g/ha,"[4]; pre-emergence, Preemergence",100%
same,pest or weed control at 31 g/ha,"[4]; pre-emergence, Preemergence",95%
same,pest or weed control at 62 g/ha,"[4]; pre-emergence, Preemergence",100%
same,pest or weed control at 125 g/ha,"[4]; pre-emergence, Preemergence",100%
same,plant injury at 16 g/ha,[5]; 16 g ai/ha,0%
same,plant injury at 31 g/ha,[5]; 31 g ai/ha,0%
same,plant injury at 62 g/ha,[5]; 62 g ai/ha,5%
same,plant injury at 125 g/ha,[5]; 125 g ai/ha,30%
same,pest or weed control at 16 g/ha,"[6]; post-emergence, Postemergence",10%
same,pest or weed control at 31 g/ha,"[6]; post-emergence, Postemergence",25%
same,pest or weed control at 62 g/ha,"[6]; post-emergence, Postemergence",55%
same,pest or weed control at 125 g/ha,"[6]; post-emergence, Postemergence",60%
same,pest or weed control at 16 g/ha,"[6]; pre-emergence, Preemergence",40%
same,pest or weed control at 31 g/ha,"[6]; pre-emergence, Preemergence",55%
same,pest or weed control at 62 g/ha,"[6]; pre-emergence, Preemergence",95%
same,pest or weed control at 125 g/ha,"[6]; pre-emergence, Preemergence",100%
same,pest or weed control at 16 g/ha,"[7]; post-emergence, Postemergence",20%
same,pest or weed control at 31 g/ha,"[7]; post-emergence, Postemergence",35%
same,pest or weed control at 62 g/ha,"[7]; post-emergence, Postemergence",55%
same,pest or weed control at 125 g/ha,"[7]; post-emergence, Postemergence",60%
same,pest or weed control at 16 g/ha,"[7]; pre-emergence, Preemergence",30%
same,pest or weed control at 31 g/ha,"[7]; pre-emergence, Preemergence",60%
same,pest or weed control at 62 g/ha,"[7]; pre-emergence, Preemergence",65%
same,pest or weed control at 125 g/ha,"[7]; pre-emergence, Preemergence",95%
same,pest or weed control at 16 g/ha,"[8]; post-emergence, Postemergence",85%
same,pest or weed control at 31 g/ha,"[8]; post-emergence, Postemergence",90%
same,pest or weed control at 62 g/ha,"[8]; post-emergence, Postemergence",90%
same,pest or weed control at 125 g/ha,"[8]; post-emergence, Postemergence",90%
same,pest or weed control at 16 g/ha,"[8]; pre-emergence, Preemergence",90%
same,pest or weed control at 31 g/ha,"[8]; pre-emergence, Preemergence",95%
same,pest or weed control at 62 g/ha,"[8]; pre-emergence, Preemergence",100%
same,pest or weed control at 125 g/ha,"[8]; pre-emergence, Preemergence",100%
same,plant injury at 16 g/ha,[9]; 16 g ai/ha,5%
same,plant injury at 31 g/ha,[9]; 31 g ai/ha,15%
same,plant injury at 62 g/ha,[9]; 62 g ai/ha,25%
same,plant injury at 125 g/ha,[9]; 125 g ai/ha,40%
same,pest or weed control at 16 g/ha,"[10]; post-emergence, Postemergence",80%
same,pest or weed control at 31 g/ha,"[10]; post-emergence, Postemergence",80%
same,pest or weed control at 62 g/ha,"[10]; post-emergence, Postemergence",85%
same,pest or weed control at 125 g/ha,"[10]; post-emergence, Postemergence",90%
same,pest or weed control at 16 g/ha,"[10]; pre-emergence, Preemergence",65%
same,pest or weed control at 31 g/ha,"[10]; pre-emergence, Preemergence",85%
same,pest or weed control at 62 g/ha,"[10]; pre-emergence, Preemergence",90%
same,pest or weed control at 125 g/ha,"[10]; pre-emergence, Preemergence",100%
same,pest or weed control at 16 g/ha,"[11]; post-emergence, Postemergence",15%
same,pest or weed control at 31 g/ha,"[11]; post-emergence, Postemergence",20%
same,pest or weed control at 62 g/ha,"[11]; post-emergence, Postemergence",40%
same,pest or weed control at 125 g/ha,"[11]; post-emergence, Postemergence",60%
same,pest or weed control at 16 g/ha,"[11]; pre-emergence, Preemergence",0%
same,pest or weed control at 31 g/ha,"[11]; pre-emergence, Preemergence",35%
same,pest or weed control at 62 g/ha,"[11]; pre-emergence, Preemergence",35%
same,pest or weed control at 125 g/ha,"[11]; pre-emergence, Preemergence",70%
